According to patent US20120220554A1, “Combretastatins for Prevention of Posterior Capsule Opacification” (OXIGENE, INC., priority 2010, published 2012):

Experiments:
BIE cells = assay: Ki67 immunofluorescence (cell proliferation) in BIE cells; type: cell-based, bovine
Description: BMI-immortalized bovine lens epithelial cells (BIE cell line, produced in Roy Quinlan's Laboratory, University of Durham, UK), were seeded onto 13 mm round coverslips in 6-well tissue culture plates in 10% fetal calf serum (FCS)-supplemented tissue culture medium (Sigma-Aldrich, UK) and kept at 37° C., 5% CO2 overnight. The next morning, they were exposed to 1 μM CA4P diluted in 10% FCS-supplemented medium for 30 min, after which the cells were returned to 10% FCS-supplemented medium. After 48 h, the prevalence of Ki67 positive cells was assessed by immunofluorescence.
BIE cells on coverslips were rinsed three times in PBS, followed by a single 20 min fixation in a 1:1 mix of methanol and acetone, three rinses in PBS/0.2 g/L BSA/0.2 g/L Na Azide and a single 20 min blocking step in 10% goat serum (Sigma-Aldrich, UK) diluted in PBS/BSA/NaAzide. The cells were then exposed to primary antibody (Ki-67: mouse monoclonal, 1/100, MIB-1 (DAKO, Denmark)) for 1 h at room temperature, after which they were rinsed three times in PBS/BSA/NaAzide and exposed to secondary antibody (goat anti-mouse IgG FITC-conjugated, 1/100; DAPI, 1/1000 (Sigma-Aldrich, UK)) for 1 h at room temperature in the dark. After three last rinses in PBS/BSA/NaAzide, the cells were plated onto microscope slides (VWR International, Belgium) and examined using a Zeiss LSM 510 Meta confocal microscope and its associated software. Ki-67 positive cells were counted out of a total of between 200 and 500 cells per coverslip, for two coverslips for each of three independent repeats, and expressed as the average percentage of Ki-67 positive cells out of the total number of cells counted (as determined by DAPI staining). Significant differences between control and treated cells were assessed by Chi^2-test.

[1] = system: polymerized tubulin in primary bovine lens epithelial cells; assay: Anti-tubulin immunofluorescence of primary lens epithelial cells on the lens capsule; type: cell-based; details: single 30 min treatment with 1 μM CA4P, at 30 min after start and up to 48 h after end of exposure (FIG. 5)
Excerpt: Bovine eyes were obtained from Coast and County Meat Group (Felling, UK) on the day of culling and lenses were dissected out of the eyes under a sterile tissue culture hood as described below. After generous dousing in 70% ethanol, eyes were cut open using a major surgical blade (Swann-Morton, UK) via a single cut, parallel and posterior to the cornea-conjunctiva limit. The eye was then inverted and the vitreous removed. The lens was freed from the ciliary fibers and immediately placed anterior face down in a SYLGARD-covered (Dow Corning, Germany) well of a 12-well tissue culture plate (Greiner Bio-One, UK). The posterior side of the lens capsule was cut in a Y-shape fashion by a thin scalpel and the resulting flaps pulled back and pinned onto the SYLGARD. The fiber mass was removed by gently rolling it off the anterior lens capsule, thus leaving most of the primary lens epithelial cell layer attached onto the anterior lens capsule. This primary lens epithelial cell layer was then cultured on its original lens capsule at 37° C., 5% CO2, in 0% FCS-supplemented tissue culture.
[…] Immediately after the end of the CA4P exposure and 48 h after the end of the CA4P exposure, the presence of polymerized tubulin in the primary lens epithelial cell layers was investigated by immunofluorescence. […]

[2] = system: Primary bovine lens epithelial cells; assay: Wound edge migration, multi-layering and EMT hallmarks of primary lens epithelial cells on the lens capsule; type: cell-based
Description: We tested CA4P as a potential inhibitor of lens epithelial cells epithelial-mesenchymal transition (EMT) during posterior capsular opacification (PCO), a common complication of cataract surgery. […] This effect persisted up to 48 h after CA4P exposure. Lens epithelial cell proliferation was also affected, as assayed by Ki67 immunofluorescence, MTT-based cell viability assays and cell cycle analysis by flow cytometry. Hallmarks of EMT, namely loss of cell polarity and migratory behavior, were also investigated in primary bovine lens epithelial cells grown on the lens capsule and were decreased by CA4P exposure, although cell multilayering seemed unaffected.
(FIG. 5). In addition, primary bovine lens epithelial cells grown on the lens capsule in serum-free conditions for 48 h move away from the wound edge.

[3] = 48 h after 30 min exposure to 1 μM CA4P
[4] = 30 min exposure to 1 mM CA4P immediately after wounding, serum-free, 48 h (data not shown)

COc1ccc(/C=C\c2cc(OC)c(OC)c(OC)c2)cc1OP(=O)(O)O [CA4P, combretastatin A-4 phosphate]
nuclear morphology (BIE cells; 30 h after exposure (data not shown)): changes in nuclear morphology, as well as multinucleated cells were detected
Ki67 negative (%) (BIE cells; [3]): 85.1 ± 5.7%
Ki67 positive (%) (BIE cells; [3]): 14.9 ± 5.7%
cell loss (BIE cells; by 48 h after exposure): cell loss is extensive
polymerized tubulin (immunofluorescence) [1]: loss of polymerized tubulin
cell multi-layering [2, 4]: does not prevent cell multi-layering
cells moving away from the wound edge [2, 4]: prevents the cells from leaving the wound edge
hallmarks of EMT: loss of cell polarity and migratory behavior ([2]; primary bovine lens epithelial cells grown on the lens capsule): decreased
